Laboratory results reported in the supplement of paper PMC8617591.

Assays:
[1] = system: Mycobacterium tuberculosis Erdman (autoluminescent); test: GRinf, maximum normalised growth rate inhibition (unitless (-1 to 1)); higher = less effect (negative = killing)
Method: (§1)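 DiaMOND dose responses (10 doses, 1.5- or 2-fold spacing, equipotent around IC90) of autoluminescent M. tuberculosis Erdman in 8 in vitro models. Read-out is OD600, or luminescence for the intracellular (J774) and dormancy models, background-subtracted and normalised to untreated wells. A 3-parameter Hill fit gives Einf and AUC25 (area to IC25 normalised by IC25); GRinf comes from a Hill fit of the Hafner normalised growth rate. Biological replicates passing QC are averaged. Single drugs only.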

[2] = system: Mycobacterium tuberculosis Erdman (autoluminescent); test: AUC25, normalised area under dose response up to IC25 (fraction (0-1)); higher = more potent at low dose
Method: as §1

[3] = system: Mycobacterium tuberculosis Erdman (autoluminescent); test: Einf, fitted maximum growth inhibition (fraction); higher = stronger maximal inhibition
Method: as §1

[4] = system: Mycobacterium tuberculosis Erdman (autoluminescent); test: Einf, fitted maximum growth inhibition of combination (fraction); higher = stronger maximal inhibition
Method: (§2)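 DiaMOND equipotent two-drug combination dose responses against autoluminescent M. tuberculosis Erdman in 8 in vitro models. Read-out is OD600, or luminescence for the intracellular and dormancy models, normalised to untreated wells. Hill-fit Einf, AUC25 and GRinf are potency metrics; FIC50 and FIC90 are Loewe-additivity fractional inhibitory concentrations, given as log2 (negative = synergy). Replicates are averaged.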

[5] = system: Mycobacterium tuberculosis Erdman (autoluminescent); test: AUC25, normalised area under dose response up to IC25 (fraction (0-1)); higher = more potent at low dose; remark: listed apart in the source
Method: as §2

[6] = system: Mycobacterium tuberculosis Erdman (autoluminescent); test: FIC90 (Loewe) at 90% inhibition (log2); higher = more antagonistic
Method: as §2

[7] = system: Mycobacterium tuberculosis Erdman (autoluminescent); test: FIC50 (Loewe) at 50% inhibition (log2); higher = more antagonistic
Method: as §2

[8] = system: Mycobacterium tuberculosis Erdman (autoluminescent); test: GRinf, maximum normalised growth rate inhibition (unitless (-1 to 1)); higher = less effect (negative = killing); remark: listed apart in the source
Method: as §2

CC(=O)NC[C@H]1CN(c2ccc(N3CCOCC3)c(F)c2)C(=O)O1 [linezolid]
Details	AUC25, [2]	Einf, [3]	GRinf, [1]
in vitro model: acidic pH 5.7, time point: constant (~7 days, model-specific)	0.105	0.813	-0.255
in vitro model: acidic pH 5.7, time point: terminal (~4-5 doublings, model-specific)	0.086	0.966	-0.214
in vitro model: intracellular J774, time point: constant = terminal	–	0.947	-0.297

Details	AUC25, [2]	Einf, [3]	GRinf, [1]
in vitro model: butyrate, time point: constant (~7 days, model-specific)	0.0921	0.894	0.0641
in vitro model: butyrate, time point: terminal (~4-5 doublings, model-specific)	0.0673	0.941	0.0625
in vitro model: cholesterol 0.05 mM, time point: constant (~7 days, model-specific)	0.152	0.692	-0.0397
in vitro model: cholesterol 0.05 mM, time point: terminal (~4-5 doublings, model-specific)	0.152	0.927	-0.195
in vitro model: cholesterol-high 0.2 mM, time point: constant (~7 days, model-specific)	0.119	0.967	-0.633
in vitro model: cholesterol-high 0.2 mM, time point: terminal (~4-5 doublings, model-specific)	0.117	1	-0.803
in vitro model: dormancy (butyrate + nitrate, low O2), time point: constant (~7 days, model-specific)	0.0427	0.907	0.164
in vitro model: dormancy (butyrate + nitrate, low O2), time point: terminal (~4-5 doublings, model-specific)	0.0425	0.989	-0.0469
in vitro model: standard 7H9 glycerol, time point: constant = terminal	0.0679	0.904	0.0704
in vitro model: valerate, time point: constant (~7 days, model-specific)	0.106	0.912	-0.0706
in vitro model: valerate, time point: terminal (~4-5 doublings, model-specific)	0.0701	0.948	-0.0311

COc1c(N2C[C@@H]3CCCN[C@@H]3C2)c(F)cc2c(=O)c(C(=O)O)cn(C3CC3)c12 [moxifloxacin]
Details	AUC25, [2]	Einf, [3]	GRinf, [1]
in vitro model: acidic pH 5.7, time point: constant (~7 days, model-specific)	0.122	0.749	-0.192
in vitro model: acidic pH 5.7, time point: terminal (~4-5 doublings, model-specific)	0.0782	0.96	-0.226
in vitro model: intracellular J774, time point: constant = terminal	–	0.957	-0.212

Details	AUC25, [2]	Einf, [3]	GRinf, [1]
in vitro model: butyrate, time point: constant (~7 days, model-specific)	0.0832	0.908	0.0408
in vitro model: butyrate, time point: terminal (~4-5 doublings, model-specific)	0.0522	0.957	0.0197
in vitro model: cholesterol 0.05 mM, time point: constant (~7 days, model-specific)	0.116	0.629	-0.0568
in vitro model: cholesterol 0.05 mM, time point: terminal (~4-5 doublings, model-specific)	0.0909	0.881	-0.0841
in vitro model: cholesterol-high 0.2 mM, time point: constant (~7 days, model-specific)	0.0781	0.824	-0.195
in vitro model: cholesterol-high 0.2 mM, time point: terminal (~4-5 doublings, model-specific)	0.0751	1	-0.609
in vitro model: dormancy (butyrate + nitrate, low O2), time point: constant (~7 days, model-specific)	0.0904	0.927	0.0805
in vitro model: dormancy (butyrate + nitrate, low O2), time point: terminal (~4-5 doublings, model-specific)	0.0579	0.974	-0.132
in vitro model: standard 7H9 glycerol, time point: constant = terminal	0.0856	0.913	0.00369
in vitro model: valerate, time point: constant (~7 days, model-specific)	0.105	0.878	-0.00227
in vitro model: valerate, time point: terminal (~4-5 doublings, model-specific)	0.0529	0.936	0.0339

O=[N+]([O-])c1cn2c(n1)OC[C@@H](OCc1ccc(OC(F)(F)F)cc1)C2 [pretomanid]
Details	AUC25, [2]	Einf, [3]	GRinf, [1]
in vitro model: acidic pH 5.7, time point: constant (~7 days, model-specific)	0.109	0.891	-0.472
in vitro model: acidic pH 5.7, time point: terminal (~4-5 doublings, model-specific)	0.0605	0.983	-0.294
in vitro model: intracellular J774, time point: constant = terminal	–	1	-0.539

Details	AUC25, [2]	Einf, [3]	GRinf, [1]
in vitro model: butyrate, time point: constant (~7 days, model-specific)	0.0902	0.949	-0.111
in vitro model: butyrate, time point: terminal (~4-5 doublings, model-specific)	0.0573	0.98	-0.114
in vitro model: cholesterol 0.05 mM, time point: constant (~7 days, model-specific)	0.122	0.741	-0.205
in vitro model: cholesterol 0.05 mM, time point: terminal (~4-5 doublings, model-specific)	0.0841	0.927	-0.0295
in vitro model: cholesterol-high 0.2 mM, time point: constant (~7 days, model-specific)	0.0644	0.888	-0.269
in vitro model: cholesterol-high 0.2 mM, time point: terminal (~4-5 doublings, model-specific)	0.044	0.943	-0.393
in vitro model: dormancy (butyrate + nitrate, low O2), time point: constant (~7 days, model-specific)	0.0707	0.914	0.272
in vitro model: dormancy (butyrate + nitrate, low O2), time point: terminal (~4-5 doublings, model-specific)	0.0458	0.994	-0.0972
in vitro model: standard 7H9 glycerol, time point: constant = terminal	0.0636	0.939	-0.0451
in vitro model: valerate, time point: constant (~7 days, model-specific)	0.136	0.948	-0.0946
in vitro model: valerate, time point: terminal (~4-5 doublings, model-specific)	0.0896	0.96	-0.00421

O=[N+]([O-])c1cn2c(n1)OC[C@@H](OCc1ccc(OC(F)(F)F)cc1)C2 [pretomanid] + NC(=O)c1cnccn1 [pyrazinamide]
Details	AUC25, [5]	Einf, [4]	FIC50, [7]	FIC90, [6]	GRinf, [8]
in vitro model: acidic pH 5.7, time point: constant (~7 days, model-specific)	0.088	0.831	-0.419	-0.689	-0.435
in vitro model: acidic pH 5.7, time point: terminal (~4-5 doublings, model-specific)	0.0893	0.968	-0.536	-1.56	-0.433
in vitro model: intracellular J774, time point: constant = terminal	–	1	–	-0.0198	-0.358

Details	AUC25, [5]	Einf, [4]	FIC50, [7]	FIC90, [6]	GRinf, [8]
in vitro model: butyrate, time point: constant (~7 days, model-specific)	0.115	0.869	-0.24	1.15	0.144
in vitro model: butyrate, time point: terminal (~4-5 doublings, model-specific)	0.109	0.936	-0.0126	1.79	0.0694
in vitro model: cholesterol 0.05 mM, time point: constant (~7 days, model-specific)	0.137	0.752	–	–	-0.38
in vitro model: cholesterol 0.05 mM, time point: terminal (~4-5 doublings, model-specific)	0.109	0.922	0.0466	–	-0.194
in vitro model: cholesterol-high 0.2 mM, time point: constant (~7 days, model-specific)	0.0725	0.886	-0.0986	–	-0.169
in vitro model: cholesterol-high 0.2 mM, time point: terminal (~4-5 doublings, model-specific)	0.0665	0.998	0.341	-0.19	-0.445
in vitro model: dormancy (butyrate + nitrate, low O2), time point: constant (~7 days, model-specific)	0.0996	0.936	-0.574	0.149	0.076
in vitro model: dormancy (butyrate + nitrate, low O2), time point: terminal (~4-5 doublings, model-specific)	0.0823	0.995	-0.829	0.679	-0.921
in vitro model: standard 7H9 glycerol, time point: constant = terminal	0.067	0.915	-0.256	–	0.0921
in vitro model: valerate, time point: constant (~7 days, model-specific)	0.093	0.833	0.0923	–	0.163
in vitro model: valerate, time point: terminal (~4-5 doublings, model-specific)	0.065	0.923	-0.176	-0.316	0.118
